The record followed here is patent publication US5707821A, “Identification of phospholipase A2 inhibitors in Aβ peptide-mediated neurodegenerative disease” (priority 1995, dated 1998).

By IC50 is commonly meant the midpoint of a concentration-inhibition curve.

What all share (assay type): cell-based
Series [1] concerns human cortical neurons. The series is described as follows: Aβ neurotoxicity / survival of human cortical neurons (alamarBlue), compound added at time of Aβ1-40. The procedure:
(§1) Cultures of human cortical or hippocampal neurons were prepared using a modification of the procedure described in P. Seubert et al. (1992), Nature 359:325-327. Cortical or hippocampal tissue was dissociated by incubation in a trypsin/EDTA solution (0.05% trypsin +0.53 mM EDTA in HBSS; Gibco) for 20 minutes at 37° C. The trypsin was then inactivated by resuspending the cells in serum-containing medium (MEM/FBS): Modified Eagle's Medium (MEM) containing 1% glucose, 1 mM sodium pyruvate, 1 mM glutamine, and supplemented with 10% fetal bovine serum (Gibco). Cells were then pelleted by centrifugation and resuspended in a chemically-defined medium (MEM/B27): MEM containing B27 supplement (Gibco) in place of FBS. Polyethyleneimine (PEI)-coated 6.4-mm (96-well) dishes were rinsed once with MEM/FBS, and then seeded at 0.75-1.25×10^5 cells per well in 0.1 ml MEM/B27. Cultures were maintained in a H2 O-saturated incubator with an atmosphere of 95% air/5% CO2 at 37° C. The culture medium was exchanged twice weekly.
Amyloid-β (Aβ) stock solutions were prepared as 1 mM stocks in sterile ddH2 O immediately prior to addition to cultures. Rat cortical neurons were exposed to Aβ by removing the culture medium and replacing it with DMEM/N2 or DMEM/B27 containing Aβ1-40. Human cortical neurons were exposed to Aβ by removing the culture medium and replacing it with MEM, MEM/N2, or MEM/B27 containing Aβ1-40. Cultures were maintained for 2-4 days before neuronal survival was quantified using alamarBlue™.
(§2) The alamarBlue™ assay incorporated a proprietary fluorometric/colorimetric metabolic indicator (Alamar Biosciences, Inc.). Viable cells convert alamarBlue™ from an oxidized (non-fluorescent, blue) form to a reduced (fluorescent, red) form. Assays were performed by replacing the culture media with a 10% alamarBlue™ solution in DMEM (rat cortical cultures) or MEM (human cortical cultures). Reduction of alamarBlue™ was determined spectrofluorometrically using a Millipore Cytofluor 2350 Scanner (excitation, […]; emission, 590 nm) and CytoCalc™ software (Millipore Corporation).
The effect of the two benzenesulfonamide inhibitors of PLA2 in Example 2 were examined to determine the dose-dependence of their effect on neuronal survival in human cortical neuron cultures exposed to 0 μM, 25μM, or 50 μM of Aβ1-40 and varying doses of the benzenesulfonamide.
(§3) Human cortical neurons were treated with 50 μM Aβ1-40 and various inhibitors of PLA2 or PLC. Compounds were added at the time of Aβ1-40 treatment at concentrations 390 nM to 100 μM. Compounds were also added to neuronal cultures in the absence of Aβ1-40. Neuronal survival was determined after 3 days of treatment by alamarBlue®. IC50 is the dose of compound that inhibited Aβ-mediated neurotoxicity by 50%. […] Data represents the mean ± SD (n=3). ND, not detected at the concentration range used.
On the technique in general: The colour change of resazurin is a common sign of viable cells or microbes.

Series [2] concerns IL-1β release by cultured human cortical microglia. The series can be described thus: IL-1 release from LPS-stimulated human cortical microglia. The procedure: (§4) Cultures of human cortical or hippocampal astrocytes and microglia were prepared using a modification of the procedure described for cortical neurons. Cortical tissue from fetuses of 16 to 20 weeks of gestation was washed 3 times in Ca^2+ /Mg^2+ free Hanks balanced salt solution (CMF HBSS) and then dissociated by repeated pipetting. The solution was brought to a final volume of 80 ml CMF HBSS for approximately 10 ml of tissue. DNase (Sigma) was added to a final concentration of 0.05 mg/ml. 20 ml of the solution was passed through one 100 μm nylon cell strained (Falcon). The cells were then centrifuged for 5 minutes at 200×G in an IEC Clinical Centrifuge and resuspended in a trypsin/EDTA solution (0.05% trypsin+0.53 mM EDTA in HBSS; Gibco) and incubated for 20 minutes at 37°C. (10 ml of trypsin was added per 2-3 ml of tissue). The trypsin was then inactivated by adding (MEM/FBS): Modified Eagle's Medium (MEM) containing 1% glucose, 1 mM sodium pyruvate, 1 mM glutamine, and supplemented with 10% fetal bovine serum (JRH). After adding a final concentration of 0.05 mg/ml DNase the cells were resuspended and then pelleted by centrifugation and resuspended in MEM/FBS. 1.6×10^8 cells were seeded in a T-150 tissue culture flask coated with polyethyleneimine (PEI). (10% PEI (Sigma) was diluted 1:10 in H2 O, filtered through a […] unit and then diluted into 150 mM sodium borate pH 8.5 at 1:100. The flasks were coated overnight at room temperature, washed two times in PBS and coated with 20 ml/flask of MEM/FBS at 37° C. for at least one hour prior to plating cells.) Cultures were maintained in a H2 O-saturated incubator with an atmosphere of 95% air/5% CO2 at 37° C. The culture medium was changed one and four days after plating and the cultures were then left undisturbed for at least one week. After approximately two weeks in vitro, the flasks were gently shaken and floating microglia were collected and centrifuged for 5 minutes at 200×G in an IEC Clinical Centrifuge. The microglia were reseeded in 96 well tissue culture plates at a density of 5,000-40,000 cells/well in 125 μl in MEM/FBS. Astrocyte cultures were prepared by multiple passaging of the established mixed brain cell cultures. Each T-150 was incubated for 3-4 minutes at 37°C. with a trypsin/EDTA solution (see above). The trypsin was then inactivated by adding MEM/FBS. The cells were triturated and then pelleted by centrifugation and resuspended in MEM/FBS. The cells from one T-150 were seeded at a 1:30 to 1:5 dilution in T-150's not coated. Just prior to confluency the cells were repassaged by trypsinization as described above. This process was repeated until the cultures were >98% pure astrocytes.
(§5) The effects of the benzenesulfonamide PLA2 inhibitor AN20606 and the selective cytosolic PLA2 inhibitor arachidonyl trifluoromethyl ketone (AN20579) were examined in cultured human cortical microglia for their selectivity for inhibiting microglia activation mediated by amyloid-βpeptide and lipopolysaccharides (LPS). LPS are a major constituent of the cell wall of gama-negative bacteria and are extensively used for generating inflammatory responses in cultured cells and in vivo.

Series [3] shares this test system. The series can be described thus: IL-1β release (ELISA) from Aβ1-40-stimulated human microglia. How it is done:
as §4
Cultured microglial cells were treated with 50 μM of Aβ1-40 or vehicle only (Control). The levels of IL-1β, IL-6, and TNF-α released into the culture medium were determined by ELISA assay (R&D Systems) according to manufacturer's instructions.
The effect of two benzenesulfonamide inhibitors of PLA2 (European Patent Application 468 054) were examined on the activation of microglial cells by Aβ1-40 as in Example 1.
as §5

The test system of series [4] is human cortical neurons. The series can be described thus: Compound toxicity to human cortical neurons in absence of Aβ1-40 (alamarBlue, 3 days). Particulars: human, 4320 min. The procedure: as §1, §2, §3

The structures appear in SMILES notation.

As for `CN(C(=O)/C=C/c1ccc(S(C)(=O)=O)cc1)c1ccc(S(=O)(=O)NC2CCCCCC2)cc1` [AN20606, N-cycloheptyl-4-[N-methyl-N-[(E)-3-(4-methylsulfonylphenyl)-2-propenoyl]amino]benzenesulfonamide], in series [1] (0, 25 or 50 μM Aβ1-40, varying doses, FIG. 3, FIG. 4), the “neuronal survival in the presence of pathogenic Aβ peptide (in words)” value was “dose-dependent increase in neuronal survival”. The “Max Inh” value in series [1] (50 μM Aβ1-40, compound 390 nM to 100 μM added at time of Aβ, 3 days, n=3) was 80%. Also, the IC50 in series [1] (Homo sapiens, Cortical neurone, 72 h, 50 μM Aβ1-40, compound 390 nM to 100 μM added at time of Aβ, 3 days, n=3, ND = not detected at the concentration range used, read-out: IC50 (dose that inhibited Aβ-mediated neurotoxicity by 50%)) came to 5 µM. Further, the “IL-1 Released” value amounted to 37 ± 0.3 pg/mL in series [2] (10 ng/ml LPS, inhibitor 20 μM where present) and 16.5 ± 6 pg/mL in series [3] (50 μM Aβ1-40, inhibitor 20 μM where present). In addition, the activity at 20 µM in series [2] (Homo sapiens, Microglia, 10 ng/ml LPS + 20 μM inhibitor, read-out: IL-1 Released, percent in parentheses (relative to LPS alone)) is 163%; in series [3] (Homo sapiens, Microglia, 50 μM Aβ1-40 + 20 μM inhibitor, read-out: IL-1 Released, percent in parentheses (relative to Aβ1-40 alone)) it was 6%. Further, the “LPS-mediated cytokine release, IL-1 (in words)” value in series [2] (LPS stimulation) was “actually enhanced”. In addition, in series [3] (50 μM Aβ1-40, 1 day, compound 0, 5, 10, 20 μM, FIG. 2), the “amount of IL-1β released into the medium (in words)” value is “marked and dose-dependent decrease”. Also, the “Aβ1-40-mediated IL-1β release, selectivity versus LPS (in words)” value in series [3] (Aβ1-40 versus LPS stimulation) is reported as “selectively inhibited”. The “TD10 (concentration giving 10% loss of neuronal survival)” value in series [4] stood at 98 µM.
